Common to all, as to assay type: cell-based
One assay addresses T1, wild-type Bcr-abl (Homo sapiens, UniProt P00519).
T1 construct: expressed in transfected cells; host or cells: Ba/F3 (murine pro-B cells); the other entry of the earlier key: BCR (P11274, Breakpoint cluster region protein)
Description: Antiproliferative effect on Ba/F3 cells expressing wild type Bcr-abl. How it is done: (§1) Compounds selectively inhibiting the proliferation of these Bcr-abl transformed cells are tested for anti-proliferative activity on Ba/F3 cells expressing either wild type or the mutant forms of Bcr-abl.
(§2) 32D-p210 cells are plated into 96 well TC plates at a density of 15,000 cells per well. 50 μL of two fold serial dilutions of the test compound (Cmax is 40 μM) are added to each well (ST1571 is included as a positive control). After incubating the cells for 48 hours at 37° C., 5% CO2, 15 μL of MTT (Promega) is added to each well and the cells are incubated for an additional 5 hours. The optical density at 570 nm is quantified spectrophotometrically and IC50 values, the concentration of compound required for 50% inhibition, determined from a dose response curve.
(§3) Compounds of the invention are tested for their antiproliferative effect on Ba/F3 cells expressing either wild type or the mutant forms of Bcr-abl (G250E, E255V, T315I, F317L, M351T) that confers resistance or diminished sensitivity to STI571. The antiproliferative effect of these compounds on the mutant-Bcr-abl expressing cells and on the non transformed cells were tested at 10, 3.3, 1.1 and 0.37 μM as described above (in media lacking IL3). The IC50 values of the compounds lacking toxicity on the untransformed cells were determined from the dose response curves obtained as describe above.

In another assay the target is T2, T3151 Bcr-abl (Homo sapiens, UniProt P00519, T315I, cells depend on it).
T2 construct: fused on or other part: P11274 (Breakpoint cluster region protein)
Put plainly: Antiproliferative effect on Ba/F3 cells expressing mutant Bcr-abl T315I. The procedure: as §1, §2, §3

A further assay deals with T3, F317L Bcr-abl (Homo sapiens, UniProt P00519, F317L).
T3 construct: expressed in transfected cells; host or cells: Ba/F3 (murine pro-B cells); the other entry of the earlier key: BCR (P11274, Breakpoint cluster region protein)
Description: Antiproliferative effect on Ba/F3 cells expressing mutant Bcr-abl F317L. How it is done: as §1, §2, §3

Another assay addresses T4, M351T Bcr-abl (Homo sapiens, UniProt P00519, M351T).
T4 construct: expressed in transfected cells; host or cells: Ba/F3 (murine pro-B cells); the other entry of the earlier key: BCR (P11274, Breakpoint cluster region protein)
Description: Antiproliferative effect on Ba/F3 cells expressing mutant Bcr-abl M351T. The procedure:
as §1, §2, §3

The target of the next assay is T5, G250E Bcr-abl (Homo sapiens, UniProt P00519, G250E).
T5 construct: expressed in transfected cells; host or cells: Ba/F3 (murine pro-B cells); the other entry of the earlier key: BCR (P11274, Breakpoint cluster region protein)
Description: Antiproliferative effect on Ba/F3 cells expressing mutant Bcr-abl G250E. The procedure: as §1, §2, §3

A further assay addresses T6, E255V Bcr-abl (Homo sapiens, UniProt P00519, E255V).
T6 construct: expressed in transfected cells; host or cells: Ba/F3 (murine pro-B cells); the other entry of the earlier key: BCR (P11274, Breakpoint cluster region protein)
Description: Antiproliferative effect on Ba/F3 cells expressing mutant Bcr-abl E255V. How it is done:
as §1, §2, §3

The term IC50 denotes the concentration needed to halve the response being measured.

For `NC(=O)c1ccc(-c2cc(-c3cc(Nc4ccc(OC(F)(F)F)cc4)ncn3)ccn2)cc1` [Compound 97], the IC50 against wild-type Bcr-abl was 0.2 µM; against T3151 Bcr-abl, 5.28 µM; against F317L Bcr-abl, 4.45 µM; against M351T Bcr-abl, 0.97 µM; on G250E Bcr-abl, 4.78 µM; on E255V Bcr-abl, 0.25 µM.

These data come from patent US20050014753A1, “Novel compounds and compositions as protein kinase inhibitors” (IRM LLC, priority 2003, published 2005).
